In patent US20110086759A1, “CHEMICAL COMPOUNDS” (SYNGENTA CROP PROTECTION, INC., priority 2007, published 2011):

Experiments:
Format in all cases: in vivo
[1] = system: Alopecurus myosuroides (ALOMY); assay: Pre-emergence biological efficacy, glasshouse pot test; details: 312 h
Summary of the method: (§1)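 Compound was applied as a spray one day after sowing, at a final dose of 1000 or 250 g/ha. Plants grew under 14 h light, 24/16 °C and 65% humidity, and injury was assessed on day 13 on a 0–100 scale.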

[2] = system: Echinochloa crus-galli (ECHCG); assay: as above; details: 312 h
Summary of the method: as §1

[3] = system: Amaranthus retoflexus (AMARE); assay: as above; details: Amaranthus retroflexus, 312 h
Summary of the method: as §1

[4] = system: Ipomea hederaceae (IPOHE); assay: as above; details: Ipomoea hederacea, 312 h
Summary of the method: as §1

Solanum nigrum (SOLNI) [5] = assay: as above; details: 312 h
Summary of the method: as §1

Setaria faberi (SETFA) [6] = assay: as above; details: 312 h
Summary of the method: as §1

[7] = system: Alopecurus myosuroides (ALOMY); assay: Post-emergence biological efficacy, glasshouse pot test; details: 312 h
Summary of the method: (§2)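 Plants were sown in standard soil and grown 8 days in a glasshouse (24/16° C. day/night, 14 hours light, 65% humidity), then sprayed post-emergence at 1000 or 250 g/ha from acetone/water (50:50) with 0.5% Tween 20. Damage was scored visually after 13 days (0 = none, 100 = total).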

[8] = system: Echinochloa crus-galli (ECHCG); assay: as above; details: 312 h
Summary of the method: as §2

[9] = system: Amaranthus retoflexus (AMARE); assay: as above; details: Amaranthus retroflexus, 312 h
Summary of the method: as §2

[10] = system: Ipomea hederaceae (IPOHE); assay: as above; details: Ipomoea hederacea, 312 h
Summary of the method: as §2

Solanum nigrum (SOLNI) [11] = assay: as above; details: 312 h
Summary of the method: as §2

Setaria faberi (SETFA) [12] = assay: as above; details: 312 h
Summary of the method: as §2

[13] = pre-emergence, 1,000 g/ha, evaluated after 13 days (100=total damage; 0=no damage), read-out: Percentage damage ALOMY
[14] = pre-emergence, 1,000 g/ha, evaluated after 13 days (100=total damage; 0=no damage), read-out: Percentage damage ECHCG
[15] = pre-emergence, 1,000 g/ha, evaluated after 13 days (100=total damage; 0=no damage), read-out: Percentage damage AMARE
[16] = pre-emergence, 1,000 g/ha, evaluated after 13 days (100=total damage; 0=no damage), read-out: Percentage damage IPOHE
[17] = pre-emergence, 1,000 g/ha, evaluated after 13 days (100=total damage; 0=no damage), read-out: Percentage damage SOLNI
[18] = pre-emergence, 1,000 g/ha, evaluated after 13 days (100=total damage; 0=no damage), read-out: Percentage damage SETFA
[19] = post-emergence, 1,000 g/ha, evaluated after 13 days (100=total damage; 0=no damage), read-out: Percentage damage caused to weed species, ALOMY
[20] = post-emergence, 1,000 g/ha, evaluated after 13 days (100=total damage; 0=no damage), read-out: Percentage damage caused to weed species, ECHCG
[21] = post-emergence, 1,000 g/ha, evaluated after 13 days (100=total damage; 0=no damage), read-out: Percentage damage caused to weed species, AMARE
[22] = post-emergence, 1,000 g/ha, evaluated after 13 days (100=total damage; 0=no damage), read-out: Percentage damage caused to weed species, IPOHE
[23] = post-emergence, 1,000 g/ha, evaluated after 13 days (100=total damage; 0=no damage), read-out: Percentage damage caused to weed species, SOLNI
[24] = post-emergence, 1,000 g/ha, evaluated after 13 days (100=total damage; 0=no damage), read-out: Percentage damage caused to weed species, SETFA

Compound | pest or weed control at 1000 g/ha [1, 13] | pest or weed control at 1000 g/ha [2, 14] | pest or weed control at 1000 g/ha [3, 15] | pest or weed control at 1000 g/ha [4, 16] | pest or weed control at 1000 g/ha (Solanum nigrum (SOLNI) [5]; [17]) | pest or weed control at 1000 g/ha (Setaria faberi (SETFA) [6]; [18]) | pest or weed control at 1000 g/ha [7, 19] | pest or weed control at 1000 g/ha [8, 20] | pest or weed control at 1000 g/ha [9, 21] | pest or weed control at 1000 g/ha [10, 22] | pest or weed control at 1000 g/ha (Solanum nigrum (SOLNI) [11]; [23]) | pest or weed control at 1000 g/ha (Setaria faberi (SETFA) [12]; [24]) | further results
COC(=O)c1nc(C2CC2)nc(NCC(F)c2ccccc2Br)c1Cl (stereo not drawn) [Compound 4-234, 4-[2-(2-Bromophenyl)-2-fluoro-ethylamino]-5-chloro-2-cyclopropyl-6-methoxycarbonyl-pyrimidine] | 0% | 0% | 10% | 0% | 0% | 0% | 0% | 20% | 90% | 60% | 70% | 30% | –
C=CCC(Nc1nc(C2CC2)nc(C(=O)OC)c1Cl)c1ccc(Cl)cc1 (stereo not drawn) [Compound 4-198, 5-Chloro-4-[1-(4-chlorophenyl)but-3-en-1-yl-amino]-2-cyclopropyl-6-methoxycarbonyl-pyrimidine] | 0% | 0% | 30% | 70% | 20% | 0% | 20% | 0% | 40% | 60% | 30% | 40% | –
COC(=O)c1nc(C2CC2)nc(N[C@@H](c2ccccc2)[C@H](O)c2ccccc2)c1Cl [4-280 (1S,2R), 5-Chloro-2-cyclopropyl-4-[(1S, 2R)-1,2-diphenyl-2-hydroxy-ethylamino]-6-methoxycarbonyl-pyrimidine] | 20% | 40% | 100% | 80% | 90% | 30% | 40% | 60% | 100% | 100% | 100% | 80% | –
COC(=O)c1nc(C2CC2)nc(NC2(/C=C/c3ccc(F)cc3)CC2)c1Cl [Compound 4-20, 5-Chloro-2-cyclopropyl-4-{1-[2-(4-fluorophenyl)-ethenyl]-cyclo-propylamino}-6-methoxycarbonyl-pyrimidine] | 0% | 0% | 50% | 50% | 20% | 0% | 20% | 50% | 100% | 100% | 80% | 70% | –
COC(=O)c1nc(C2CC2)nc(NC(Cc2c[nH]c3ccccc23)C(=O)OC)c1Cl (stereo not drawn) [Compound 4-290, 5-Chloro-2-cyclopropyl-4-(2-indol-3-yl-1-methoxycarbonyl-ethylamino)-6-methoxycarbonyl-pyrimidine] | 20% | 40% | 80% | 90% | 80% | 30% | 30% | 30% | 100% | 70% | 80% | 50% | –
O=C(NCc1ccco1)c1nc(C2CC2)nc(NCc2ccco2)c1Cl [Compound 265-3, 5-Chloro-2-cyclopropyl-4-(furan-2-ylmethylamino)-6-(furan-2-yl-methylamino-carbonyl)-pyrimidine] | – | – | – | – | – | – | – | – | – | – | – | – | pest or weed control at 1000 g/ha ([1]; pre-emergence, rate 1,000 g/ha, evaluated after 13 days (100=total damage to plant; 0=no damage), read-out: Percentage damage caused to weed species, ALOMY): 20%; pest or weed control at 1000 g/ha ([2]; pre-emergence, rate 1,000 g/ha, evaluated after 13 days (100=total damage to plant; 0=no damage), read-out: Percentage damage caused to weed species, ECHCG): 30%; pest or weed control at 1000 g/ha ([3]; pre-emergence, rate 1,000 g/ha, evaluated after 13 days (100=total damage to plant; 0=no damage), read-out: Percentage damage caused to weed species, AMARE): 60%; pest or weed control at 1000 g/ha ([4]; pre-emergence, rate 1,000 g/ha, evaluated after 13 days (100=total damage to plant; 0=no damage), read-out: Percentage damage caused to weed species, IPOHE): 90%; pest or weed control at 1000 g/ha (Solanum nigrum (SOLNI) [5]; pre-emergence, rate 1,000 g/ha, evaluated after 13 days (100=total damage to plant; 0=no damage), read-out: Percentage damage caused to weed species, SOLNI): 60%; pest or weed control at 1000 g/ha (Setaria faberi (SETFA) [6]; pre-emergence, rate 1,000 g/ha, evaluated after 13 days (100=total damage to plant; 0=no damage), read-out: Percentage damage caused to weed species, SETFA): 40%; pest or weed control at 1000 g/ha ([7]; Rate 1,000 g/ha, post-emergence spray, evaluated after 13 days (100=total damage to plant; 0=no damage to plant), read-out: Percentage damage caused to weed species, post-emergence, ALOMY): 20%; pest or weed control at 1000 g/ha ([8]; Rate 1,000 g/ha, post-emergence spray, evaluated after 13 days (100=total damage to plant; 0=no damage to plant), read-out: Percentage damage caused to weed species, post-emergence, ECHCG): 30%; pest or weed control at 1000 g/ha ([9]; Rate 1,000 g/ha, post-emergence spray, evaluated after 13 days (100=total damage to plant; 0=no damage to plant), read-out: Percentage damage caused to weed species, post-emergence, AMARE): 70%; pest or weed control at 1000 g/ha ([10]; Rate 1,000 g/ha, post-emergence spray, evaluated after 13 days (100=total damage to plant; 0=no damage to plant), read-out: Percentage damage caused to weed species, post-emergence, IPOHE): 70%; pest or weed control at 1000 g/ha (Solanum nigrum (SOLNI) [11]; Rate 1,000 g/ha, post-emergence spray, evaluated after 13 days (100=total damage to plant; 0=no damage to plant), read-out: Percentage damage caused to weed species, post-emergence, SOLNI): 70%; pest or weed control at 1000 g/ha (Setaria faberi (SETFA) [12]; Rate 1,000 g/ha, post-emergence spray, evaluated after 13 days (100=total damage to plant; 0=no damage to plant), read-out: Percentage damage caused to weed species, post-emergence, SETFA): 20%
COC(=O)c1nc(C2CC2)nc(NC2(/C=C/c3cccs3)CC2)c1Cl [Compound 4-23, 5-Chloro-2-cyclopropyl-6-methoxycarbonyl-4-[1-(2-thiophen-2-ylethenyl)-cyclopropylamino]-pyrimidine] | 10% | 0% | 70% | 70% | 60% | 0% | 20% | 60% | 100% | 100% | 80% | 70% | –
COC(=O)c1nc(C2CC2)nc(NC2(/C=C/c3ccc(C)cc3)CC2)c1Cl [Compound 4-25, 5-Chloro-2-cyclopropyl-6-methoxycarbonyl-4-{1-[2-(4-methylphenyl)-ethenyl]-cyclopropylamino}-pyrimidine] | 10% | 10% | 100% | 30% | 60% | 0% | 40% | 60% | 100% | 100% | 80% | 60% | –
